“And” between values parts separate entries of the source, which are not always exact repeats. Equal entries are not always repeated. Inconclusive results and toxic doses are left out. Cut-off read from the data, not from the text of the source: active = T/C of 150% or more; inactive = T/C below 125%.
Tested on: L1210 leukemia ip in BDF1 mice, survival T/C
Assay: NCI In Vivo Anticancer Drug Screen. Data for tumor model L1210 Leukemia (intraperitoneal) in B6D2F1 (BDF1) mice
Details: higher = longer survival
Procedure, shortened: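 Tumor was transplanted into mice, which were then dosed with test compound or vehicle alone. Survival was recorded for each group, and the treated figure was expressed relative to the control figure.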

Measured: T/C

N=[N+]=CC(=O)OCC(N)C(=O)O (stereo not given)
inactive: endpoint: mean survival time, dose: 0.06 mg/kg/injection, schedule: Q#A X Z (ip), vehicle: saline 117 % of control | endpoint: mean survival time, dose: 0.43 mg/kg/injection, schedule: Q01DX009 (ip), vehicle: saline 111 % of control | endpoint: mean survival time, dose: 0.5 mg/kg/injection, schedule: Q01DX010 (ip), vehicle: saline 119 % of control | endpoint: mean survival time, dose: 0.5 mg/kg/injection, schedule: Q01DX Z (ip), vehicle: saline 117 % of control and 118 % of control | endpoint: mean survival time, dose: 0.85 mg/kg/injection, schedule: Q01DX009 (ip), vehicle: saline 105 % of control and 111 % of control | endpoint: mean survival time, dose: 1.0 mg/kg/injection, schedule: Q01DX Z (ip), vehicle: saline 115 % of control | endpoint: mean survival time, dose: 1.3 mg/kg/injection, schedule: Q04DX002 (ip), vehicle: saline 98 % of control and 112 % of control | endpoint: mean survival time, dose: 1.7 mg/kg/injection, schedule: Q01DX009 (ip), vehicle: saline 115 % of control | endpoint: mean survival time, dose: 1.8 mg/kg/injection, schedule: Q01DX Z (ip), vehicle: carboxymethylcellulose (CMC) 108 % of control and 120 % of control | endpoint: mean survival time, dose: 2.0 mg/kg/injection, schedule: Q01DX005 (ip), vehicle: saline 114 % of control | endpoint: mean survival time, dose: 2.0 mg/kg/injection, schedule: Q01DX Z (oral), vehicle: saline 110 % of control | endpoint: mean survival time, dose: 2.0 mg/kg/injection, schedule: Q01DX Z (sc), vehicle: saline 118 % of control | endpoint: mean survival time, dose: 2.5 mg/kg/injection, schedule: Q04DX002 (ip), vehicle: saline 106 % of control and 110 % of control | endpoint: mean survival time, dose: 3.5 mg/kg/injection, schedule: Q07DX003 (ip), vehicle: saline 115 % of control | endpoint: mean survival time, dose: 4.0 mg/kg/injection, schedule: Q01DX009 (ip), vehicle: saline 121 % of control | endpoint: mean survival time, dose: 4.0 mg/kg/injection, schedule: Q01DX Z (im), vehicle: saline 118 % of control | endpoint: mean survival time, dose: 4.0 mg/kg/injection, schedule: Q01DX Z (sc), vehicle: saline 119 % of control | endpoint: mean survival time, dose: 4.0 mg/kg/injection, schedule: Q03HX024 (oral), vehicle: saline 117 % of control | endpoint: mean survival time, dose: 4.0 mg/kg/injection, schedule: Q## X003 (ip), vehicle: saline 106 % of control | endpoint: mean survival time, dose: 5.0 mg/kg/injection, schedule: Q04DX002 (ip), vehicle: saline 117 % of control and 121 % of control | endpoint: mean survival time, dose: 7.0 mg/kg/injection, schedule: Q07DX003 (ip), vehicle: saline 117 % of control | endpoint: mean survival time, dose: 8.0 mg/kg/injection, schedule: Q01DX009 (ip), vehicle: saline 121 % of control | endpoint: mean survival time, dose: 8.0 mg/kg/injection, schedule: Q01DX009 (oral), vehicle: saline 105 % of control and 107 % of control | endpoint: mean survival time, dose: 8.0 mg/kg/injection, schedule: Q04DX003 (ip), vehicle: saline 113 % of control | endpoint: mean survival time, dose: 8.0 mg/kg/injection, schedule: Q## X002 (ip), vehicle: saline 102 % of control | endpoint: mean survival time, dose: 8.0 mg/kg/injection, schedule: Q## X003 (ip), vehicle: saline 107 % of control and 113 % of control | endpoint: mean survival time, dose: 8.0 mg/kg/injection, schedule: Q## X003 (oral), vehicle: saline 97 % of control and 101 % of control | endpoint: mean survival time, dose: 8.0 mg/kg/injection, schedule: Q## X024 (oral), vehicle: saline 106 % of control | endpoint: mean survival time, dose: 14.0 mg/kg/injection, schedule: Q01DX001 (ip), vehicle: saline 120 % of control and 121 % of control | endpoint: mean survival time, dose: 14.0 mg/kg/injection, schedule: Q07DX003 (ip), vehicle: saline 117 % of control | endpoint: mean survival time, dose: 16.0 mg/kg/injection, schedule: Q01DX001 (ip), vehicle: saline 108 % of control | endpoint: mean survival time, dose: 16.0 mg/kg/injection, schedule: Q01DX001 (sc), vehicle: saline 98 % of control | endpoint: mean survival time, dose: 16.0 mg/kg/injection, schedule: Q01DX006 (iv), vehicle: saline 107 % of control | endpoint: mean survival time, dose: 16.0 mg/kg/injection, schedule: Q04DX003 (ip), vehicle: saline 112 % of control | endpoint: mean survival time, dose: 16.0 mg/kg/injection, schedule: Q04DX003 (oral), vehicle: saline 101 % of control and 104 % of control | endpoint: mean survival time, dose: 16.0 mg/kg/injection, schedule: Q## X002 (ip), vehicle: saline 103 % of control | endpoint: mean survival time, dose: 16.0 mg/kg/injection, schedule: Q## X003 (ip), vehicle: saline 116 % of control | endpoint: mean survival time, dose: 16.0 mg/kg/injection, schedule: Q## X003 (oral), vehicle: saline 111 % of control and 113 % of control | endpoint: mean survival time, dose: 16.0 mg/kg/injection, schedule: Q## X024 (oral), vehicle: saline 97 % of control and 104 % of control | endpoint: mean survival time, dose: 18.0 mg/kg/injection, schedule: Q01DX014 (ip), vehicle: saline 117 % of control | endpoint: mean survival time, dose: 27.0 mg/kg/injection, schedule: Q01DX001 (ip), vehicle: saline 104 % of control | endpoint: mean survival time, dose: 28.0 mg/kg/injection, schedule: Q01DX001 (ip), vehicle: saline 120 % of control | endpoint: mean survival time, dose: 28.0 mg/kg/injection, schedule: Q07DX003 (ip), vehicle: saline 120 % of control | endpoint: mean survival time, dose: 32.0 mg/kg/injection, schedule: Q01DX001 (ip), vehicle: saline 111 % of control | endpoint: mean survival time, dose: 32.0 mg/kg/injection, schedule: Q01DX001 (sc), vehicle: saline 105 % of control | endpoint: mean survival time, dose: 32.0 mg/kg/injection, schedule: Q01DX009 (ip), vehicle: saline 102 % of control and 119 % of control | endpoint: mean survival time, dose: 32.0 mg/kg/injection, schedule: Q01DX009 (sc), vehicle: saline 109 % of control | endpoint: mean survival time, dose: 32.0 mg/kg/injection, schedule: Q01DX Z (ip), vehicle: saline 95 % of control | endpoint: mean survival time, dose: 32.0 mg/kg/injection, schedule: Q01DX Z (sc), vehicle: saline 118 % of control | endpoint: mean survival time, dose: 32.0 mg/kg/injection, schedule: Q04DX003 (ip), vehicle: saline 115 % of control | endpoint: mean survival time, dose: 32.0 mg/kg/injection, schedule: Q04DX003 (oral), vehicle: saline 110 % of control | endpoint: mean survival time, dose: 32.0 mg/kg/injection, schedule: Q## X002 (ip), vehicle: saline 120 % of control | endpoint: mean survival time, dose: 32.0 mg/kg/injection, schedule: Q## X003 (ip), vehicle: saline 117 % of control | endpoint: mean survival time, dose: 32.0 mg/kg/injection, schedule: Q## X003 (oral), vehicle: saline 109 % of control and 120 % of control | endpoint: mean survival time, dose: 32.0 mg/kg/injection, schedule: Q## X024 (oral), vehicle: saline 121 % of control | endpoint: mean survival time, dose: 35.0 mg/kg/injection, schedule: Q02DX010 (ip), vehicle: other 95 % of control | endpoint: mean survival time, dose: 36.0 mg/kg/injection, schedule: Q02DX010 (ip), vehicle: other 110 % of control | endpoint: mean survival time, dose: 40.0 mg/kg/injection, schedule: Q01DX001 (ip), vehicle: saline 112 % of control | endpoint: mean survival time, dose: 40.0 mg/kg/injection, schedule: Q01DX Z (ip), vehicle: saline 99 % of control | endpoint: mean survival time, dose: 52.0 mg/kg/injection, schedule: Q02DX010 (ip), vehicle: carboxymethylcellulose (CMC) 107 % of control | endpoint: mean survival time, dose: 54.0 mg/kg/injection, schedule: Q02DX010 (ip), vehicle: other 106 % of control | endpoint: mean survival time, dose: 60.0 mg/kg/injection, schedule: Q01DX001 (ip), vehicle: saline 121 % of control | endpoint: mean survival time, dose: 64.0 mg/kg/injection, schedule: Q01DX001 (ip), vehicle: saline 110 % of control | endpoint: mean survival time, dose: 64.0 mg/kg/injection, schedule: Q01DX001 (oral), vehicle: saline 103 % of control | endpoint: mean survival time, dose: 64.0 mg/kg/injection, schedule: Q01DX001 (sc), vehicle: saline 110 % of control | endpoint: mean survival time, dose: 64.0 mg/kg/injection, schedule: Q04DX003 (ip), vehicle: saline 104 % of control and 112 % of control | endpoint: mean survival time, dose: 64.0 mg/kg/injection, schedule: Q04DX003 (oral), vehicle: saline 106 % of control and 120 % of control | endpoint: mean survival time, dose: 64.0 mg/kg/injection, schedule: Q## X002 (ip), vehicle: saline 118 % of control | endpoint: mean survival time, dose: 64.0 mg/kg/injection, schedule: Q## X003 (oral), vehicle: saline 117 % of control and 119 % of control | endpoint: mean survival time, dose: 72.0 mg/kg/injection, schedule: Q## X032 (ip), vehicle: saline 115 % of control and 116 % of control | endpoint: mean survival time, dose: 80.0 mg/kg/injection, schedule: Q04DX002 (ip), vehicle: saline 104 % of control | endpoint: mean survival time, dose: 96.0 mg/kg/injection, schedule: Q03DX006 (ip), vehicle: saline 102 % of control | endpoint: mean survival time, dose: 108.0 mg/kg/injection, schedule: Q## X032 (ip), vehicle: saline 101 % of control | endpoint: mean survival time, dose: 112.0 mg/kg/injection, schedule: Q01DX001 (ip), vehicle: saline 114 % of control | endpoint: mean survival time, dose: 128.0 mg/kg/injection, schedule: Q01DX001 (sc), vehicle: saline 105 % of control | endpoint: mean survival time, dose: 128.0 mg/kg/injection, schedule: Q04DX003 (oral), vehicle: saline 110 % of control | endpoint: mean survival time, dose: 128.0 mg/kg/injection, schedule: Q## X024 (ip), vehicle: saline 112 % of control | endpoint: median survival time, dose: 0.25 mg/kg/injection, schedule: Q03HX024 (ip), vehicle: water 105 % of control | endpoint: median survival time, dose: 2.0 mg/kg/injection, schedule: Q01DX009 (ip), vehicle: water 120 % of control

CSc1nc(N)nc2c1ncn2C1OC(CO)CC1O (stereo not given)
inactive: endpoint: mean survival time, dose: 100.0 mg/kg/injection, schedule: Q01DX001 (ip), vehicle: saline 107 % of control | endpoint: mean survival time, dose: 200.0 mg/kg/injection, schedule: Q01DX001 (ip), vehicle: saline 104 % of control | endpoint: mean survival time, dose: 400.0 mg/kg/injection, schedule: Q01DX001 (ip), vehicle: saline 115 % of control

COC(=O)CC1CC(C=O)C1 (stereo not given)
inactive: endpoint: mean survival time, dose: 100.0 mg/kg/injection, schedule: Q04DX002 (ip), vehicle: saline 105 % of control | endpoint: mean survival time, dose: 200.0 mg/kg/injection, schedule: Q04DX002 (ip), vehicle: saline 102 % of control | endpoint: mean survival time, dose: 400.0 mg/kg/injection, schedule: Q04DX002 (ip), vehicle: saline 105 % of control
